According to the NIST ThermoML archive (doi:10.1016/j.jct.2010.02.006):
± gives the expanded uncertainty stated by the source.

Experiment: activity coefficient (dimensionless); of the first substance listed, at infinite dilution; xn = mol fraction of the nth substance listed
Conditions: 101.3 kPa, Liquid, Chromatography, x1 = 0

| activity coefficient (302.8 K) | activity coefficient (313.4 K) | activity coefficient (323.1 K) | activity coefficient (332.8 K) | activity coefficient (343.4 K) | activity coefficient (303.5 K) | activity coefficient (313.2 K) | activity coefficient (323.3 K) | activity coefficient (333.1 K) | activity coefficient (343.1 K) | activity coefficient (313.3 K) | SMILES | further results |
| --- | --- | --- | --- | --- | --- | --- | --- | --- | --- | --- | --- | --- |
| 37.6 ± 3.3 | 32.2 ± 2.8 | 28.1 ± 2.4 | 23.8 ± 2.1 | 19.9 ± 1.7 | – | – | – | – | – | – | CCCCCCC [heptane] + CCn1cc[n+](C)c1.N#C[B-](C#N)(C#N)C#N | – |
| – | – | – | – | – | 11.3 ± 0.97 | 9.74 ± 0.84 | 8.39 ± 0.72 | 7.35 ± 0.63 | 6.27 ± 0.54 | – | C=CCCCC [hex-1-ene] + CCn1cc[n+](C)c1.N#C[B-](C#N)(C#N)C#N | – |
| 58.9 ± 5.1 | 52.5 ± 4.5 | 46.7 ± 4 | 40.7 ± 3.5 | 34.9 ± 3 | – | – | – | – | – | – | CCCCCCCC [octane] + CCn1cc[n+](C)c1.N#C[B-](C#N)(C#N)C#N | – |
| – | – | – | – | – | 30.1 ± 2.6 | 26.8 ± 2.3 | 24 ± 2.1 | 21.5 ± 1.9 | 19 ± 1.6 | – | C=CCCCCCC [oct-1-ene] + CCn1cc[n+](C)c1.N#C[B-](C#N)(C#N)C#N | – |
| 21 ± 1.8 | 17.4 ± 1.5 | 15.1 ± 1.3 | 12.5 ± 1.1 | 10.3 ± 0.89 | – | – | – | – | – | – | CCCCCC [hexane] + CCn1cc[n+](C)c1.N#C[B-](C#N)(C#N)C#N | – |
| – | – | – | – | – | 2.12 ± 0.18 | – | 1.74 ± 0.15 | 1.6 ± 0.14 | 1.46 ± 0.12 | 1.92 ± 0.17 | CCCO [propan-1-ol] + CCn1cc[n+](C)c1.N#C[B-](C#N)(C#N)C#N | – |
| – | – | – | – | – | 1.64 ± 0.14 | – | 1.37 ± 0.12 | 1.27 ± 0.11 | 1.16 ± 0.1 | 1.5 ± 0.13 | CCO [ethanol] + CCn1cc[n+](C)c1.N#C[B-](C#N)(C#N)C#N | – |
| 85 ± 7.4 | 78.1 ± 6.8 | 70.8 ± 6.1 | 63.5 ± 5.5 | 55.3 ± 4.8 | – | – | – | – | – | – | CCCCCCCCC [nonane] + CCn1cc[n+](C)c1.N#C[B-](C#N)(C#N)C#N | – |
| – | – | 3.05 ± 0.26 | – | – | – | 3 ± 0.26 | – | – | – | – | CCc1ccccc1 [ethylbenzene] + CCn1cc[n+](C)c1.N#C[B-](C#N)(C#N)C#N | activity coefficient (303.6 K): 3 ± 0.26; activity coefficient (333.2 K): 2.97 ± 0.26; activity coefficient (343.3 K): 2.92 ± 0.25 |
| – | – | – | – | – | 1.13 ± 0.09 | – | 0.97 ± 0.08 | 0.91 ± 0.08 | 0.85 ± 0.07 | 1.05 ± 0.09 | CO [methanol] + CCn1cc[n+](C)c1.N#C[B-](C#N)(C#N)C#N | – |
| 10.3 ± 0.89 | 8.21 ± 0.71 | 7.05 ± 0.61 | 5.92 ± 0.51 | 4.88 ± 0.42 | – | – | – | – | – | – | CCCCC [pentane] + CCn1cc[n+](C)c1.N#C[B-](C#N)(C#N)C#N | – |
| 20.7 ± 1.8 | 18.9 ± 1.6 | 16.9 ± 1.5 | 15.2 ± 1.3 | 13.3 ± 1.1 | – | – | – | – | – | – | CC1CCCCC1 [methylcyclohexane] + CCn1cc[n+](C)c1.N#C[B-](C#N)(C#N)C#N | – |

The remaining lines, values behind:

| SMILES | activity coefficient (302.8 K) | activity coefficient (313.4 K) | activity coefficient (323.1 K) | activity coefficient (332.8 K) | activity coefficient (343.4 K) | activity coefficient (303.5 K) | activity coefficient (313.2 K) | activity coefficient (323.3 K) | activity coefficient (333.1 K) | activity coefficient (343.1 K) | activity coefficient (313.3 K) | further results |
| --- | --- | --- | --- | --- | --- | --- | --- | --- | --- | --- | --- | --- |
| C#CCCC [1-pentyne] + CCn1cc[n+](C)c1.N#C[B-](C#N)(C#N)C#N | – | – | – | – | – | 2.72 ± 0.23 | – | 2.5 ± 0.22 | 2.38 ± 0.21 | 2.29 ± 0.2 | 2.61 ± 0.23 | – |
| Cc1ccccc1 [toluene] + CCn1cc[n+](C)c1.N#C[B-](C#N)(C#N)C#N | – | – | 1.98 ± 0.17 | – | – | – | 1.92 ± 0.16 | – | – | – | – | activity coefficient (303.6 K): 1.9 ± 0.16; activity coefficient (333.2 K): 1.94 ± 0.17; activity coefficient (343.3 K): 1.92 ± 0.16 |
| C=CCCCCCCCC [1-decene] + CCn1cc[n+](C)c1.N#C[B-](C#N)(C#N)C#N | – | – | – | – | – | 60.5 ± 5.2 | 56 ± 4.8 | 51.5 ± 4.5 | 47.8 ± 4.1 | 43.4 ± 3.8 | – | – |
| Cc1cccc(C)c1 [1,3-dimethylbenzene] + CCn1cc[n+](C)c1.N#C[B-](C#N)(C#N)C#N | – | – | – | – | – | – | 2.99 ± 0.26 | – | 3.01 ± 0.26 | 2.99 ± 0.26 | – | activity coefficient (303.6 K): 2.92 ± 0.25; activity coefficient (323.2 K): 3.03 ± 0.26 |
| C#CCCCCCC [1-octyne] + CCn1cc[n+](C)c1.N#C[B-](C#N)(C#N)C#N | – | – | – | – | – | 9.64 ± 0.83 | – | 9.11 ± 0.79 | 8.84 ± 0.76 | – | 9.42 ± 0.81 | activity coefficient (342.8 K): 8.58 ± 0.74 |
| Cc1ccccc1C [1,2-dimethylbenzene] + CCn1cc[n+](C)c1.N#C[B-](C#N)(C#N)C#N | – | – | – | – | – | – | – | – | – | 2.54 ± 0.22 | 2.53 ± 0.22 | activity coefficient (303.6 K): 2.49 ± 0.21; activity coefficient (323.2 K): 2.58 ± 0.22; activity coefficient (333.2 K): 2.56 ± 0.22 |
| c1ccccc1 [benzene] + CCn1cc[n+](C)c1.N#C[B-](C#N)(C#N)C#N | – | – | – | – | – | – | – | – | – | – | 1.31 ± 0.11 | activity coefficient (303.6 K): 1.31 ± 0.11; activity coefficient (323.2 K): 1.34 ± 0.11; activity coefficient (333.3 K): 1.31 ± 0.11; activity coefficient (343.2 K): 1.3 ± 0.11 |
| C#CCCCCC [1-heptyne] + CCn1cc[n+](C)c1.N#C[B-](C#N)(C#N)C#N | – | – | – | – | – | 6.33 ± 0.55 | – | 5.97 ± 0.52 | 5.78 ± 0.5 | 5.59 ± 0.48 | 6.15 ± 0.53 | – |
| C1CCCCC1 [cyclohexane] + CCn1cc[n+](C)c1.N#C[B-](C#N)(C#N)C#N | 13.8 ± 1.2 | 12.4 ± 1.1 | 11.2 ± 0.97 | 9.85 ± 0.85 | 8.64 ± 0.75 | – | – | – | – | – | – | – |
| Cc1ccc(C)cc1 [1,4-dimethylbenzene] + CCn1cc[n+](C)c1.N#C[B-](C#N)(C#N)C#N | – | – | – | – | – | – | 2.85 ± 0.25 | – | – | – | – | activity coefficient (303.7 K): 2.78 ± 0.24; activity coefficient (323.2 K): 2.87 ± 0.25; activity coefficient (333.3 K): 2.85 ± 0.25; activity coefficient (343.2 K): 2.84 ± 0.24 |
| C#CCCCC [1-hexyne] + CCn1cc[n+](C)c1.N#C[B-](C#N)(C#N)C#N | – | – | – | – | – | 4.18 ± 0.36 | – | 3.92 ± 0.34 | 3.77 ± 0.33 | 3.58 ± 0.31 | 4.04 ± 0.35 | – |
